Laboratory results as given in ChEMBL document CHEMBL4219204, “Structure-based design and discovery of potent and selective KDM5 inhibitors” (Bioorg Med Chem Lett, 2018).

Assays:
[1] = Clearance in CD-1 mouse at 5 mg/kg, iv; format: ADME, organism-based; conditions: in vivo
[2] = target: T1, Lysine-specific demethylase 2B (Homo sapiens, UniProt Q8NHM5); assay: Inhibition of KDM2B (unknown origin)
T1 sequence (Q8NHM5 whole entry): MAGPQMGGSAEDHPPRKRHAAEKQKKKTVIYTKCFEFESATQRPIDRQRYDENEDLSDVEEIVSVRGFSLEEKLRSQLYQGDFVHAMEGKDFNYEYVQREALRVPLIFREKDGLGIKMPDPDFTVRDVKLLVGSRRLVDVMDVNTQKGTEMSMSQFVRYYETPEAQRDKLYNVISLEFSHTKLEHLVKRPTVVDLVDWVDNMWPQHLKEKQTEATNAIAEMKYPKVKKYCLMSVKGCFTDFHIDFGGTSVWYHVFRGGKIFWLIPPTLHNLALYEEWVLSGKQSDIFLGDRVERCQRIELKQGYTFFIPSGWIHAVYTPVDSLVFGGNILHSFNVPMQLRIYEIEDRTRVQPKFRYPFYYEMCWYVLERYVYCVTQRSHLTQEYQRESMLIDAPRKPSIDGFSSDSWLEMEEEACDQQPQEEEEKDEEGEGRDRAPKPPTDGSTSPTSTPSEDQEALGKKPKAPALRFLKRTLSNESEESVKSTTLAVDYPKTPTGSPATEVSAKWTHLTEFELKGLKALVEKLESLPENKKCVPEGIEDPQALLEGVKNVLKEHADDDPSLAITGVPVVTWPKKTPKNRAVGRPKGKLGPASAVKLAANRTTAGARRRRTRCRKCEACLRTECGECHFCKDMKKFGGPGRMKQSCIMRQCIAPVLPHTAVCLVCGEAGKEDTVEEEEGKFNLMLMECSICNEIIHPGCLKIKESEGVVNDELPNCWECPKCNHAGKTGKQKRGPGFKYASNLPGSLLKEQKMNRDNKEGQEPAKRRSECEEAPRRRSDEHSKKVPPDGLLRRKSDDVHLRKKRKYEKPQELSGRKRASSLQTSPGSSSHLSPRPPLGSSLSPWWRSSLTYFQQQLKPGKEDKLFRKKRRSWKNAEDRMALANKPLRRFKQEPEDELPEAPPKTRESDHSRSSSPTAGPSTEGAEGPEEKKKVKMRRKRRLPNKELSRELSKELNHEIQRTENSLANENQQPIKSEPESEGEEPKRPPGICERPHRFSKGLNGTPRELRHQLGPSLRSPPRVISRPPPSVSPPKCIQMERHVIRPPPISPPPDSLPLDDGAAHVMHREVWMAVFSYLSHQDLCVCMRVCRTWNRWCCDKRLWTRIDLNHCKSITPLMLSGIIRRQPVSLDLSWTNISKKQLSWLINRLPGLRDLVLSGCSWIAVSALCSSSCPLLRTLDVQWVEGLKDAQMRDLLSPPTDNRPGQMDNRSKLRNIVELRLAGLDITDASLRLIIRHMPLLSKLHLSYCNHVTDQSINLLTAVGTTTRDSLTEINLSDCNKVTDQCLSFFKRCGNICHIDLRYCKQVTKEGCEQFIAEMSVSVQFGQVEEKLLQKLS

clearance [1]: 2.1 mL/min/kg | IC50 [2]: 630 nM
Structure (SMILES): Cc1cc(Cl)ccc1COc1ccnn1-c1cc(C(=O)O)ccn1
